# Measurements from patent publication US20220389009A1, “SUBSTITUTED 1,6-NAPHTHYRIDINE INHIBITORS OF CDK5” (Goldfinch Bio, Inc., priority 2019, published 2022).
# Read-outs that look alike come from different tables or passages of the source.
# Key:
# CDK2/CycA2 = CDK2/CycA2 (Homo sapiens, UniProt P24941); assay: CDK2 mobility shift assay (enzymatic activity of CDK2/CycA2); assay type: biochemical; details: 1.25 nM CDK2/CycA2, 37 μM ATP, FL Peptide 18, 120 min at room temperature; read-out: CDK2 IC50
# Outline: (§1)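 Carna CDK5/p25 (0.154 nM) or CDK2/CycA2 (1.25 nM) was preincubated 30 min with compound, ATP ([…] for CDK5; 37 μM for CDK2) and 10 mM MgCl2 in HEPES pH 7.5. The reaction was started with 1.5 μM FL peptide (29 for CDK5, 18 for CDK2) and run 60 min (CDK5) or 120 min (CDK2) at room temperature. Product was read by mobility shift, with IC50 from a 4-parameter fit.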
# CDK5/p25 = CDK5/p25 (Homo sapiens, UniProt Q00535); assay: CDK5 mobility shift assay (enzymatic activity of CDK5/p25); assay type: biochemical; details: for IC50: 0.154 nM CDK5/p25, FL peptide 29, 60 min at room temperature, read-out: CDK5 IC50
# Outline: as §1
# [1] = fold more active against CDK5 than CDK2
# Chain of CDK5/p25 (Q00535 whole entry): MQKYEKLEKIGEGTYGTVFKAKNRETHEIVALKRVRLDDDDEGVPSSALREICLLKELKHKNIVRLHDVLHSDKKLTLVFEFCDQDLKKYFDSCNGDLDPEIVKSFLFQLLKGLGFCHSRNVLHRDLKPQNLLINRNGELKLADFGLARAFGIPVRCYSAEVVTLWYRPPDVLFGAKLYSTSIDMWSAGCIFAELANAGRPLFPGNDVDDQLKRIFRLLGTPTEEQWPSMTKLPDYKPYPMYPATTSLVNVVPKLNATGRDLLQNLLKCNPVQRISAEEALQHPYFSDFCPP
# Chain of CDK5/p25 (Q15078 99-307 partner limits assumed): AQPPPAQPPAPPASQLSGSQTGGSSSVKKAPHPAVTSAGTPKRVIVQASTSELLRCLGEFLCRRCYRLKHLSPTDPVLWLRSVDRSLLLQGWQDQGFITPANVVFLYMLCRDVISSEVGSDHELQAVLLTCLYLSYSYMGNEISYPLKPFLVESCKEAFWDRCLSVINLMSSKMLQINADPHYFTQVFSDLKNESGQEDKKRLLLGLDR
IC50 (CDK2/CycA2) [nM],IC50 (CDK5/p25) [nM],Compound,CDK5/CDK2 specificity (CDK5/p25; [1]),CDK5/CDK2 specificity (CDK5/p25)
100 to 1000,< 10,"CN1CCC(C(O)c2ccc3cnc(Nc4ccc(-n5ccc(CO)n5)cc4F)cc3n2)CC1 (single isomer, unassigned) [Compound 254, [7-([2-fluoro-4-[3-(hydroxymethyl)pyrazol-1-yl]phenyl]amino)-1,6-naphthyridin-2-yl](1-methylpiperidin-4-yl)methanol]",+++ (greater than 100-fold more active against CDK5 than CDK2),
100 to 1000,< 10,CN1CCC(S(=O)(=O)c2ccc3cnc(Nc4cccc(N5CCN(C)CC5)c4)cc3n2)CC1 [Compound 277],++ (greater than 10-fold and less than or equal to 100-fold more active against CDK5 than CDK2),
100 to 1000,< 10,CN1CCC(S(=O)(=O)c2ccc3cnc(Nc4cccc(N5CCCC5=O)c4)cc3n2)CC1 [Compound 281],++ (greater than 10-fold and less than or equal to 100-fold more active against CDK5 than CDK2),
100 to 1000,< 10,"CN1CCC(S(=O)(=O)c2ccc3cnc(Nc4ccc(-n5ccc(C(N)=O)n5)cc4F)cc3n2)CC1 [Compound 317, 1-(3-fluoro-4-[[2-(1-methylpiperidin-4-ylsulfonyl)-1,6-naphthyridin-7-yl]amino]phenyl)pyrazole-3-carboxamide]",+++ (greater than 100-fold more active against CDK5 than CDK2),
> 1000,10 to 100,"N#Cc1cccc(-c2ccc(Nc3cc4nc(C(O)C5CCN(CCO)CC5)ccc4cn3)c(F)c2)c1 (single isomer, unassigned) [Compound 251, 3′-fluoro-4′-[(2-[hydroxy[1-(2-hydroxyethyl)piperidin-4-yl]methyl]-1,6-naphthyridin-7-yl)amino]-[1,1′-biphenyl]-3-carbonitrile]",++ (greater than 10-fold and less than or equal to 100-fold more active against CDK5 than CDK2),
> 1000,10 to 100,"OC(c1ccc2cnc(Nc3ccc(-n4cccn4)cc3F)cc2n1)C1CCNCC1 (stereo not drawn) [Compound 149, (7-[[2-fluoro-4-(pyrazol-1-yl)phenyl]amino]-1,6-naphthyridin-2-yl) (piperidin-4-yl)methanol]",++ (greater than 10-fold and less than or equal to 100-fold more active against CDK5 than CDK2),
100 to 1000,< 10,"CN1CCC(C(O)c2ccc3cnc(Nc4ccc(-n5ccc(C(=O)O)n5)cc4F)cc3n2)CC1 (stereo not drawn) [Compound 292, 1-[3-fluoro-4-([2-[hydroxy(1-methylpiperidin-4-yl)methyl]-1,6-naphthyridin-7-yl]amino)phenyl]pyrazole-3-carboxylic acid]",++ (greater than 10-fold and less than or equal to 100-fold more active against CDK5 than CDK2),
10 to 100,< 10,"N[C@H]1CC[C@@H](Sc2ccc3cnc(Nc4ccc(-n5cccn5)cc4F)cc3n2)CC1 [Compound 121, N-[2-fluoro-4-(pyrazol-1-yl)phenyl]-2-[[(1s,4s)-4-aminocyclohexyl]sulfanyl]-1,6-naphthyridin-7-amine]",+ (10-fold or less more active against CDK5 than CDK2),
10 to 100,< 10,"CN1CCC([C@@](C)(O)c2ccc3cnc(Nc4ccc(-c5cccc(C(N)=O)c5)cc4F)cc3n2)CC1 [Compound 364, (R)-3′-fluoro-4′-((2-(1-hydroxy-1-(1-methylpiperidin-4-yl)ethyl)-1,6-naphthyridin-7-yl)amino)-[1,1′-biphenyl]-3-carboxamide]",++ (greater than 10-fold and less than or equal to 100-fold more active against CDK5 than CDK2),
> 1000,> 1000,CN1CCC(S(=O)(=O)c2ccc3cnc(Nc4ccccc4N4CCOCC4)cc3n2)CC1 [Compound 266],++ (greater than 10-fold and less than or equal to 100-fold more active against CDK5 than CDK2),
100 to 1000,< 10,CN1CCC(S(=O)(=O)c2ccc3cnc(Nc4ccc(CN5CCOCC5)cc4)cc3n2)CC1 [Compound 261],+++ (greater than 100-fold more active against CDK5 than CDK2),
10 to 100,< 10,CN1CCC(S(=O)(=O)c2ccc3cnc(Nc4cccc(N5CCNC5=O)c4)cc3n2)CC1 [Compound 285],++ (greater than 10-fold and less than or equal to 100-fold more active against CDK5 than CDK2),
100 to 1000,< 10,"OCc1ccn(-c2ccc(Nc3cc4nc(NC5CCNCC5)ccc4cn3)c(F)c2)n1 [Compound 102, [1-(3-fluoro-4-[[2-(piperidin-4-ylamino)-1,6-naphthyridin-7-yl]amino]phenyl)pyrazol-3-yl]methanol]",++ (greater than 10-fold and less than or equal to 100-fold more active against CDK5 than CDK2),
100 to 1000,< 10,CCN1CCC(S(=O)(=O)c2ccc3cnc(Nc4ccc(-n5cccn5)cc4F)cc3n2)CC1 [Compound 384],+++ (greater than 100-fold more active against CDK5 than CDK2),
10 to 100,< 10,"OCc1ccn(-c2ccc(Nc3cc4nc(SC5CCNCC5)ccc4cn3)c(F)c2)n1 [Compound 108, [1-(3-fluoro-4-[[2-(piperidin-4-ylsulfanyl)-1,6-naphthyridin-7-yl]amino]phenyl)pyrazol-3-yl]methanol]",++ (greater than 10-fold and less than or equal to 100-fold more active against CDK5 than CDK2),
100 to 1000,< 10,"CN1CCC(S(=O)(=O)c2ccc3cnc(Nc4ccc(-n5ccc(C(=O)O)n5)cc4F)cc3n2)CC1 [Compound 198, 1-(3-fluoro-4-((2-((1-methylpiperidin-4-yl)sulfonyl)-1,6-naphthyridin-7-yl)amino)phenyl)-1H-pyrazole-3-carboxylic acid]",+++ (greater than 100-fold more active against CDK5 than CDK2),
100 to 1000,10 to 100,CN(C)Cc1cccc(Nc2cc3nc(S(=O)(=O)C4CCN(C)CC4)ccc3cn2)c1 [Compound 280],+ (10-fold or less more active against CDK5 than CDK2),
> 1000,> 1000,"O=C(O)[C@@H]1CNCC[C@H]1Nc1ccc2cnc(Nc3ccc(-n4ccc(CO)n4)cc3F)cc2n1 [Compound 114, (3R,4R)-4-[[7-([2-fluoro-4-[3-(hydroxymethyl)pyrazol-1-yl]phenyl]amino)-1,6-naphthyridin-2-yl]amino]piperidine-3-carboxylic acid]",+ (10-fold or less more active against CDK5 than CDK2),

Compound,IC50 (CDK2/CycA2) [nM],IC50 (CDK5/p25) [nM],CDK5/CDK2 specificity (CDK5/p25; [1]),CDK5/CDK2 specificity (CDK5/p25)
"N#CCN(c1ccc2cnc(Nc3ccc(-n4ccc(CO)n4)cc3F)cc2n1)C1CCNCC1 [Compound 162, 2-[[7-([2-fluoro-4-[3-(hydroxymethyl)pyrazol-1-yl]phenyl]amino)-1,6-naphthyridin-2-yl](piperidin-4-yl)amino]acetonitrile]",> 1000,100 to 1000,++ (greater than 10-fold and less than or equal to 100-fold more active against CDK5 than CDK2),
"3-fluoro-4-([2-[(1R)-1-hydroxy-1-(1-methylpiperidin-4-yl)ethyl]-1,6-naphthyridin-7-yl]amino)-[1,1-biphenyl]-3-carboxylic acid [Compound 360]",10 to 100,< 10,,++ (greater than 10-fold and less than or equal to 100-fold more active against CDK5 than CDK2)
